{"source": "patent US20040053847A1", "about": "“Diastereomeric peptitdes and pharmaceutical compositions comprising them” (priority 2000, published 2004)", "key": {"[1]": {"assay": "In vivo toxicity, single i.v. bolus injection in CD1 mice", "design": "species or system CD1 male mice", "experimental": "The in vivo toxicity of the liposomal peptide 9 preparation composed of the lipids PC/PG (9:1 w/w) at a 10:1 w/w lipid/peptide ratio was examined. Groups of 5 CD1 male mice weighing 24-27 g (5-week old), bred in an animal isolator (IVC racks) under specific pathogen-free (SPF) conditions at 24±1° C., were used. Twelve mg/kg liposomal peptide 9 or peptide 9 alone dissolved in PBS in a dosing volume of 10 ml/kg, were administered by single i.v. bolus injection via the mice tail vein. In parallel, control groups received i.v. injections of equivalent liposomes alone or PBS in a dosing volume of 10 ml/kg."}, "[2]": {"assay": "Cell selectivity, Trypan blue cell viability, LC50", "format": "cell-based, mouse", "conditions": "mouse, NIH-3T3 fibroblasts; 50% cell mortality after 24 h incubation, medium without serum; read-out: Lethal Concentration (LC50), NIH-3T3 fibroblasts"}, "A549 lung carcinoma": {"test_system": "A549 lung carcinoma", "format": "cell-based, human", "conditions": "24 h", "experimental": "(§1) Aliquots of 100 μl of tumor cell suspension (about 2.5-5×10^3/well) were placed in 96-well microtiter plates in an atmosphere of 5% CO2 at 37° C. […] At the end of incubation, 20 μl of AlamarBlue 75% reagent was added to each well for another 6-hour incubation before detection of cell viability by fluorescence intensity. Fluorescence intensity was measured using a Spectraflour Plus plate reader with excitation at 530 nm and emission at 590 nm. The assays were used to detect changes in cell proliferation based on the ability of viable cells to cause AlamarBlue to change from its oxidized (non-fluorescent, blue) to a reduced (fluorescent, red) form. With the results obtained from the AlamarBlue reaction, cell proliferation can be quantified and metabolic activity of viable cells can be examined."}, "[3]": {"test_system": "MCF-7 breast adenocarcinoma", "format": "cell-based, human", "conditions": "24 h", "experimental": "as §1"}, "[4]": {"test_system": "PC-3 prostate adenocarcinoma", "format": "cell-based, human", "conditions": "24 h", "experimental": "as §1"}, "[5]": {"test_system": "HT-29 colon adenocarcinoma", "format": "cell-based, human", "conditions": "24 h", "experimental": "as §1"}, "[6]": {"test_system": "SK-MEL- (ATCC HTB-70) malignant melanoma", "format": "cell-based, human", "conditions": "24 h", "experimental": "as §1"}, "[7]": {"test_system": "B16 F10 mouse melanoma cell line", "assay": "In vitro anticancer activity, Trypan blue cell viability, LC50", "conditions": "50% cell mortality after 24 h incubation, medium without serum", "experimental": "The anticancer activity of the diastereomers 1, 2, 8, 9 and 10 was examined against B16 F10 mouse melanoma cell line. Melanoma cells were grown in RPMI-1640 medium supplemented with 10% fetal calf serum and antibiotics, at 37° C., in humidified atmosphere at 5% CO2 and 95% air. In addition, the cell-selectivity of the diastereomeric peptides was studied by examining their effect on NIH-3T3 normal fibroblasts cell line. NIH-3T3 mouse fibroblasts cells were grown in DMEM medium supplemented with 10% bovine calf serum and antibiotics under the same conditions as described above for B16 F10 mouse melanoma cells. Melanoma cells (2×10^5 cells ml^−1) or NIH-3T3 cells (2.5×10^5 cells ml^−1) were seeded in tissue culture plates (3.5 cm). After 48 h, cells were washed thrice with the corresponding medium. Then the cells were incubated at 37° C. in medium (without serum and antibiotics) in the presence of the tested diastereomeric peptides dissolved in PBS, at different concentrations. […] Following 24 h of incubation, the cells were harvested with trypsin (0.25%)-EDTA (0.05%) and centrifuiged for 10 min at 270×g. The precipitated cells were suspended in the corresponding medium and counted in a hemocytometer (Neubauer). Cell viability was determined by Trypan blue dye exclusion."}, "human breast MCF-7 cells": {"test_system": "human breast MCF-7 cells", "assay": "Xenograft model of human breast MCF-7 cells in SCID mice", "format": "in vivo", "conditions": "mouse, in vivo", "experimental": "The in-vivo anticancer assay was conducted on SCID (Severe Combined Immune Deficiency) mice using the xenograft model of human breast MCF-7 cells. Groups of 6 SCID female mice weighing 18-20 g (6-week old), bred in an animal isolator (IVC racks under specific pathogen-free (SPF) conditions at 24±1° C., were used. Viable human breast carcinoma MCF-7 cells (ATCC HTB-22−1×10^7 cells in 0.2 ml of PBS) were injected subcutaneously (s.c.) into the dorsal side of SCID mice. 50 μg/mouse of estradiol benzoate was injected s.c. weekly as a supplement for 4 weeks. […] Mitomycin at a dose of 2 mg/kg was administered intraperitoneally (IP) twice a week for 5 doses. The tumor size, body weight and the signs of overt animal toxicity after each treatment were recorded and observed. At the end of the experiment, hematological analysis was carried out."}, "[8]": {"test_system": "Staphylococcus aureus ATCC 6538P", "experimental": "(§2) The antibacterial activity of the peptides was examined in sterile 96-well plates (Nunc F96 microtiter plates) in a final volume of 100 μl as follows: Aliquots (50 μl) of a suspension containing bacteria at concentration of 1×10^6 Colony-Forming Units (CFU)/ml in culture LB (Lauria broth) medium were added to 50 μl of water containing the peptide in serial 2-fold dilutions in water. Inhibition of growth was determined by measuring the absorbance at 600 nm with a Microplate autoreader E1309 (Bio-tek Instruments), after an incubation time of 18-20 h at 37° C. Antibacterial activities were expressed as the minimal inhibitory concentration (MIC), the concentration at which 100% inhibition of growth was observed after 18-20 h of incubation. […]\n(§3) The antibacterial activity of the resulting liposomal diastereomeric peptide preparations were examined as described in Example 2 above. The MICs of liposomal peptide 9 in various lipid compositions and peptide/lipid ratios (as described above), or of liposomes at lipid compositions equivalent to the loaded_liposomes (not shown) or peptide 9 alone, were determined using the following bacteria: Acinetobacter baumannii ATCC 19606, and Staphylococcus aureus ATCC 6538P."}, "[9]": {"test_system": "Acinetobacter baumannii ATCC 19606", "experimental": "as §2, §3"}}, "note": "Square brackets hold non-standard residues; d marks the D form. Peptide text beside a SMILES is read from it."}
{"smiles": "CC(C)C[C@H](NC(=O)[C@H](CCCNC(=N)N)NC(=O)[C@@H](CC(C)C)NC(=O)[C@H](CC(C)C)NC(=O)[C@@H](N)CCCCN)C(=O)N[C@@H](CC(C)C)C(=O)N[C@H](CCCCN)C(=O)N[C@H](CCCCN)C(=O)N[C@@H](CC(C)C)C(=O)N[C@H](CC(C)C)C(=O)N[C@@H](CCCNC(=N)N)C(=O)N[C@@H](CC(C)C)C(=O)N[C@H](CC(C)C)C(=O)N[C@@H](CC(C)C)C(=O)N[C@@H](CCCCN)C(N)=O", "note": "[Peptide 9, [D]-L^3,10,13,K^7,8-K4R2L9] (H-KL[dL]RLL[dK][dK]L[dL]RL[dL]LK-NH2)", "values": [{"measurement": "Mortality", "setting": "[1]; 12 mg/kg injected i.v.", "result": 80, "unit": "%"}, {"measurement": "Incidence of mortality", "setting": "[1]; 12 mg/kg single i.v. injection", "result": "4/5"}, {"measurement": "CC50 at 24 h", "setting": "[2]", "result": 30, "unit": "µg/mL"}, {"measurement": "IC50", "setting": "A549 lung carcinoma", "result": 1400, "unit": "nM"}, {"measurement": "IC50", "setting": "[3]", "result": 3300, "unit": "nM"}, {"measurement": "IC50", "setting": "[4]", "result": 1600, "unit": "nM"}, {"measurement": "IC50", "setting": "[5]", "result": 2200, "unit": "nM"}, {"measurement": "IC50", "setting": "[6]", "result": 1200, "unit": "nM"}, {"measurement": "Lethal Concentration (LC50), B16-F10 melanoma", "setting": "[7]", "result": 2, "unit": "µg/mL"}, {"measurement": "PLT", "setting": "human breast MCF-7 cells", "result": "1.31e+06", "unit": "µL⁻¹"}, {"measurement": "RBC", "setting": "human breast MCF-7 cells", "result": "11.18 ± 0.11 × 10^6/μl"}, {"measurement": "Reduction of RBC", "setting": "human breast MCF-7 cells", "result": "only a slight reduction in RBC"}, {"measurement": "Reduction of WBC and platelets", "setting": "human breast MCF-7 cells", "result": "did not cause a reduction in WBC and platelets"}, {"measurement": "WBC", "setting": "human breast MCF-7 cells", "result": 2220, "unit": "µL⁻¹"}, {"measurement": "MIC of liposomal peptide 9, S. aureus", "setting": "[8]", "result": 12.5, "unit": "µg/mL"}, {"measurement": "MIC of liposomal peptide 9, A. baumannii", "setting": "[9]", "result": 3.1, "unit": "µg/mL"}]}
